In ChEMBL document CHEMBL6071133, “Discovery of novel penetrating peptides able to target human leukemia and lymphoma for enhanced PROTAC delivery” (Eur J Med Chem, 2024):
Activity calls are given as the source filed them. The rule behind the calls is not given here.

What was measured:
[1] = Drug uptake in human CCRF-CEM cells assessed as increase in fluorescence intensity at 1 to 10 uM incubated for 2 hrs by flow cytometry; assay type: ADME, cell-based; conditions: dose 1-10 µM
[2] = Drug uptake in human K562 cells assessed as membrane permeability by measuring increase in fluorescence intensity at 5 umol/L incubated for 2 hrs by flow cytometry relative to THP-1 cells; assay type: ADME, cell-based; conditions: k562, 2 h, 5 µM, dose 5 µmol/L
[3] = Drug uptake in human KU812 cells assessed as perinuclear distribution and colocalization with nucleus at 10 umol/L incubated for 2 hrs by confocal laser microscopy; assay type: ADME, cell-based; conditions: ku812, 2 h, 10 µM, dose 10 µmol/L
[4] = Drug uptake in human KU812 cells assessed as increase in fluorescence intensity at 1 to 10 umol/L incubated for 2 hrs by cell imaging based fluorescence microscopic analysis; assay type: ADME; conditions: ku812, 2 h, dose 1-10 µmol/L
[5] = system: K562; assay: Potentiation of IMA-PROTAC-induced cytotoxicity against human K562 cells assessed as inhibition of cell growth at compound: IMA-PROTAC concentration ratio of 5:1 incubated for 48 hrs in presence of 3 umo/L IMA-PROTAC by MTT assay; assay type: functional, cell-based
[6] = Drug uptake in human K562 cells assessed as membrane penetration by measuring increase in fluorescence intensity at 5 umol/L incubated for 2 hrs by flow cytometry relative to C9C; assay type: ADME, cell-based; conditions: k562, 2 h, 5 µM, dose 5 µmol/L
[7] = Drug uptake in human KU812 cells assessed as increase in fluorescence intensity at 1 to 10 uM incubated for 2 hrs by flow cytometry; assay type: ADME, cell-based; conditions: ku812, 2 h, dose 1-10 µM
[8] = Drug uptake in human K562 cells assessed as fluorescence intensity at 5 umol/L pretreated with endocytosis inhibitor, chlorpromazine for 0.5 hrs followed by incubation with compound for 2 hrs by FACS analysis; assay type: ADME, cell-based; conditions: k562, 2 h, 5 µM, dose 5 µmol/L
[9] = system: K562; assay: Increase in membrane permeability of IMA-PROTAC in human K562 cells assessed as potentiation of IMA-PROTAC-induced Bcr-Abl degradation at PROTAC to compound concentration ratio of 1:3 incubated for 48 hrs in presence of 3 umol/L IMA-PROTAC by western blot analysis; assay type: functional, cell-based
[10] = system: K562; assay: Induction of apoptosis in human K562 cells assessed as viable cells at PROTAC to compound concentration ratio of 1:5 incubated for 48 hrs in presence of 3 umol/L IMA-PROTAC by AnnexinV-FITC/PI staining based flow cytometry (reference value: 99.85%); assay type: functional
[11] = Stability of the compound in fetal bovine serum assessed as parent compound remaining measured after 8 hrs by HPLC-MS analysis; assay type: ADME, cell-free, Bos taurus; conditions: cattle, read-out: Stability
[12] = Drug uptake in human K562 cells assessed as increase in fluorescence intensity at 5 umol/L measured for 5 to 240 mins by flow cytometry; assay type: ADME, cell-based; conditions: k562, 5 µM, TDE = time-dependent effect, time 5-240 min, dose 5 µmol/L
[13] = Drug uptake in human K562 cells assessed as fluorescence intensity at 5 umol/L pretreated with endocytosis inhibitor, chloroquine for 0.5 hrs followed by incubation with compound for 2 hrs by FACS analysis; assay type: ADME, cell-based; conditions: k562, 2 h, 5 µM, dose 5 µmol/L
[14] = Drug uptake in human CCRF-CEM cells assessed as increase in fluorescence intensity at 1 to 10 umol/L incubated for 2 hrs by cell imaging based fluorescence microscopic analysis; assay type: ADME; conditions: dose 1-10 µmol/L
[15] = Cytotoxicity against human THP-1 cells assessed as cell viability at higher concentrations incubated for 48 hrs by MTT assay; assay type: toxicity, cell-based; conditions: read-out: Activity
[16] = Cytotoxicity against human KU812 cells assessed as cell viability at 0.01 to 100 uM incubated for 48 hrs by MTT assay; assay type: toxicity, cell-based; conditions: dose 0.01-100 µM, read-out: Activity
[17] = Drug uptake in human K562 cells assessed as fluorescence intensity at 5 umol/L pretreated with endocytosis inhibitor, methyl-beta-cyclodextrin for 0.5 hrs followed by incubation with compound for 2 hrs by FACS analysis; assay type: ADME, cell-based; conditions: k562, 2 h, 5 µM, dose 5 µmol/L
[18] = Cytotoxicity against human CCRF-CEM cells assessed as cell viability at 0.01 to 100 uM incubated for 48 hrs by MTT assay; assay type: toxicity, cell-based; conditions: dose 0.01-100 µM, read-out: Activity
[19] = Drug uptake in human KU812 cells assessed as membrane permeability by measuring increase in fluorescence intensity at 5 umol/L incubated for 2 hrs by flow cytometry relative to THP-1 cells; assay type: ADME, cell-based; conditions: ku812, 2 h, 5 µM, dose 5 µmol/L
[20] = Stability of the compound in fetal bovine serum assessed as parent compound remaining measured after 36 hrs by HPLC-MS analysis; assay type: ADME, cell-free, Bos taurus; conditions: cattle, read-out: Stability
[21] = Drug uptake in human K562 cells assessed as increase in fluorescence intensity at 1 to 10 uM incubated for 2 hrs by flow cytometry; assay type: ADME, cell-based; conditions: k562, 2 h, dose 1-10 µM
[22] = Drug uptake in human K562 cells assessed as increase in fluorescence intensity at 1 to 10 umol/L incubated for 2 hrs by cell imaging based fluorescence microscopic analysis; assay type: ADME; conditions: k562, 2 h, dose 1-10 µmol/L
[23] = system: K562; assay: Induction of apoptosis in human K562 cells assessed as early apoptotic cells at PROTAC to compound concentration ratio of 1:5 incubated for 48 hrs in presence of 3 umol/L IMA-PROTAC by AnnexinV-FITC/PI staining based flow cytometry (reference value: 0.03%); assay type: functional
[24] = Increase in membrane permeation of IMA-PROTAC in human K562 cells assessed as increase in intracellular content of IMA-PROTAC incubated for 3 hrs by HPLC-MRM-MS analysis relative to control; assay type: functional
[25] = Cytotoxicity against human K562 cells assessed as cell viability at 0.01 to 100 uM incubated for 48 hrs by MTT assay; assay type: toxicity, cell-based; conditions: dose 0.01-100 µM, read-out: Activity
[26] = Interaction with IMA-PROTAC assessed as induction of formation of micelle cluster with uniform and distinct spherical morphology by transmission electron microscopy; assay type: physicochemical
[27] = Drug uptake in human THP-1 cells assessed as increase in fluorescence intensity at 10 umol/L incubated for 2 hrs by cell imaging based fluorescence microscopic analysis; assay type: ADME; conditions: thp-1, 2 h, 10 µM, dose 10 µmol/L
[28] = Drug uptake in human CCRF-CEM cells assessed as increase in fluorescence intensity at 5 umol/L measured for 5 to 240 mins by flow cytometry; assay type: ADME, cell-based; conditions: 5 µM, TDE = time-dependent effect, time 5-240 min, dose 5 µmol/L
[29] = Interaction with IMA-PROTAC assessed as induction of assembly formation by transmission electron microscopy; assay type: physicochemical
[30] = Drug uptake in human K562 cells assessed as increase in fluorescence intensity at 5 umol/L pretreated with endocytosis inhibitor, nystatin for 0.5 hrs followed by incubation with compound for 2 hrs by FACS analysis; assay type: ADME, cell-based; conditions: k562, 2 h, 5 µM, dose 5 µmol/L
[31] = system: K562; assay: Increase in membrane permeability of IMA-PROTAC in human K562 cells assessed as potentiation of IMA-PROTAC-induced inhibition of STAT5 phosphorylation at PROTAC to compound concentration ratio of 1:3 incubated for 48 hrs in presence of 3 umol/L IMA-PROTAC by western blot analysis; assay type: functional, cell-based
[32] = Drug uptake in human KU812 cells assessed as membrane penetration by measuring increase in fluorescence intensity at 5 umol/L incubated for 2 hrs by flow cytometry relative to C9C; assay type: ADME, cell-based; conditions: ku812, 2 h, 5 µM, dose 5 µmol/L

Question: For `CC(C)C[C@H](NC(=O)[C@H](Cc1csc2ccccc12)NC(=O)[C@@H](Cc1ccccc1)NC(=O)[C@H](Cc1ccccc1)NC(=O)CNC(=O)[C@@H](N)CS)C(=O)N[C@@H](CCCNC(=N)N)C(=O)N[C@@H](CO)C(=O)N[C@@H](CS)C(=O)O`, which Drug uptake [1] is on record?
Answer: Its Drug uptake is “Dose-Dependent Effect”.

Question: And the “fold change (FC)” value [2]?
Answer: The value was 8.8.

Question: And the Drug uptake [3]?
Answer: Its Drug uptake is “Active”.

Question: What about the Drug uptake [4] of the same molecule?
Answer: Its Drug uptake is “Active”.

Question: What about the Activity [5] of the same molecule?
Answer: Its Activity is “inactive”.

Question: What about the “fold change (FC)” value [6] of the same molecule?
Answer: Its value is 4.03.

Question: What about the Drug uptake [7] of the same molecule?
Answer: Its Drug uptake is “Dose-Dependent Effect”.

Question: And the Drug uptake [8]?
Answer: The Drug uptake was “Not Active”.

Question: And the Activity [9]?
Answer: The Activity was “Active”.

Question: And the Activity [10]?
Answer: Its Activity is 63.19%.

Question: And the remaining at 8 h [11]?
Answer: Its remaining at 8 h is 100%.

Question: What about the Drug uptake [12] of the same molecule?
Answer: Its Drug uptake is “Tde”.

Question: And the Drug uptake [13]?
Answer: Its Drug uptake is “Not Active”.

Question: What about the Drug uptake [14] of the same molecule?
Answer: Its Drug uptake is “Active”.

Question: What about the viability at 48 h [15] of the same molecule?
Answer: The viability at 48 h was greater than 75%.

Question: And the viability at 48 h, up to 100 µM [16]?
Answer: Its viability at 48 h, up to 100 µM is greater than 75%.

Question: And the Drug uptake [17]?
Answer: Its Drug uptake is “Not Active”.

Question: And the viability at 48 h, up to 100 µM [18]?
Answer: Its viability at 48 h, up to 100 µM is greater than 75%.

Question: And the “fold change (FC)” value [19]?
Answer: Its value is 4.

Question: And the remaining at 36 h [20]?
Answer: The remaining at 36 h was 55%.

Question: What about the Drug uptake [21] of the same molecule?
Answer: The Drug uptake was “Dose-Dependent Effect”.

Question: What about the Drug uptake [22] of the same molecule?
Answer: The Drug uptake was “Active”.

Question: And the Activity [23]?
Answer: The Activity was 22.82%.

Question: What about the “fold change (FC)” value [24] of the same molecule?
Answer: Its value is 1.72.

Question: What about the viability at 48 h, up to 100 µM [25] of the same molecule?
Answer: Its viability at 48 h, up to 100 µM is greater than 75%.

Question: What about the Activity [26] of the same molecule?
Answer: The Activity was “Not Active”.

Question: And the Drug uptake [27]?
Answer: Its Drug uptake is “Active”.

Question: What about the Drug uptake [28] of the same molecule?
Answer: The Drug uptake was “Tde”.

Question: And the Activity [29]?
Answer: Its Activity is “Not Active”.

Question: What about the Drug uptake [30] of the same molecule?
Answer: The Drug uptake was “Active”.

Question: And the Activity [31]?
Answer: Its Activity is “Active”.

Question: And the “fold change (FC)” value [32]?
Answer: The value was 4.45.
